Data from article PMC8251916 (Chemistry (Weinheim an Der Bergstrasse, Germany), 2021).

Columns and labels:
[1] = tested on: F21T-Na+ (human telomeric G-quadruplex, antiparallel); assay: FRET melting assay, human telomeric G4 in sodium buffer; format: binding; settings: 200 nM DNA, PIPER and 3 not reliable (spectral overlap)
Method: (§1) With the library in hand, we began our investigation into G4 stabilization by conducting a Förster resonance energy transfer (FRET) melting assay to assess DNA stabilization using the procedure outlined by De Cian et. al. ^[13] […] The sequences examined (at 200 nM) were the human telomeric G4 in potassium buffer (F21T‐K^+, mixed parallel/hybrid G4) ^[14] and sodium buffer (F21T‐Na^+, antiparallel G4), ^[15] the c‐Myc promoter G‐quadruplex (FmycT‐K^+, parallel G4), ^[16] a polymorphic G4 found in T. brucei (FEBR1T‐K^+, a mixed G4 topology), ^[6b] and a hairpin duplex DNA sequence (F10T‐K^+). Together, these sequences represent targets for therapeutic intervention to treat parasitic infections, ^[6b] or cancer. ^[1b] The topology of each sequence was confirmed independently via circular dichroism (CD, Figure S1). […]
(§2) FRET melting assays were performed to assess ligand affinity for duplex and G-quadruplex
(§3) DNA. Briefly, oligonucleotides of interest were obtained labelled at the 5’ and 3’ ends with FAM (a fluorescence donor) and TAMRA (a fluorescence quencher), respectively. In the folded state, proximity of the donor and quencher result in no observed fluorescence from FAM, since energy is transferred non-radiatively to TAMRA by FRET. As the temperature is raised and the secondary structure denatures, the fluorophores move further apart and the fluorescence signal increases. From the resulting curve, the characteristic melting temperature (Tmax, also referred to as Tm) is defined as the temperature which corresponds to the maxima of the first derivative of the normalised fluorescence signal. The change in melting temperature (ΔTm) induced by the presence of a small molecule ligand provides an indication of the ligand’s ability to stabilise the DNA structure. FRET experiments were performed according to the […]
(§4) procedure reported by De Cian and co-workers[S3] on a Stratagene MX3005P. The method consisted of holding at 25 °C for 5 min, before heating at 1 °C/min to 96 °C in 1 °C increments, […]

[2] = tested on: HeLa cervical carcinoma cells; assay: Cytotoxicity, alamarBlue assay, HeLa; format: cell-based, human; settings: Homo sapiens, HeLa; 72 h incubation, alamarBlue fluorescence; read-out: absolute EC50 HeLa
Method: (§5) Doxorubicin, suramin and miltefosine were used as control compounds.[ ^6b , ^9 ] After incubation with varied concentrations of the compounds for 72 h, cell viability was measured using either an alamarBlue™ assay (for MRC5, HeLa and T. brucei) or MTT assay (for L. major). Absolute EC50 values and selectivity indexes were then calculated from dose‐response curves (Table 2 and S14). […]
(§6) Cell culture reagents were purchased from Thermo Fisher Scientific (Waltham, MA, USA) and used as-is. The Dulbecco’s Minimal Essential Medium (DMEM) formulation contained either high glucose (4.5 g/L, catalogue number: 10569) or low glucose (1 g/L, catalogue number:
(§7) 10567). RPMI-1640 was provided without sodium pyruvate and with L-glutamine (catalogue number: 11875). Phosphate Buffered Saline (PBS) contained NaCl (9 g/L), KH2PO4 (144 mg/L) and Na2HPO4-7.H2O (795 mg/L, catalogue number: 10010049). TrypLE Express™ was provided with EDTA (458 mg/L) and without Phenol Red (catalogue number: 12604021).
MRC-5 cells (human lung fibroblasts) were grown in monolayer (37 °C, 5 % CO2 and 100 % humidity) in DMEM medium (1 g/L glucose), supplemented with 10% heat-inactivated Fetal Bovine Serum (hiFBS), 2 mM L-glutamine, 100 U / mL penicillin and […] streptomycin. HeLa (Human cervical carcinoma cell line) cells were maintained at 37 °C and 5 % CO2 in high glucose DMEM (4.5 g / L) supplemented with 10% hiFBS, 100 U / ml penicillin, […] streptomycin, 2 mM L-glutamine and non-essential aminoacids (1X).
(§8) Cells were cultured according to ATCC recommendations and were used for the experiments while in the exponential growth phase. […]
(§9) Cytotoxicity was measured through the alamarBlue® assay (Thermo Fisher Scientific).[S6,S13] Briefly, 5×10^3 MRC-5 or HeLa cells were seeded in 96-wells plates (100 µL / well) in the presence of increasing concentrations of compound. After 72 hrs of incubation at 37 °C, 20 µL of alamarBlue® solution (110 ng / ml) was added to each well and cells were reincubated for 4 hrs at 37 °C. Then, 50 µL of 3 % SDS were added to each well. The plate was incubated at 37 °C for an extra hour and then analysed by fluorescence with an Infinite F200 plate reader (TECAN Austria, GmbH). The excitation wavelength was fixed at 550 nm and the emission wavelength at 590 nm. The results are expressed as the concentration of compound that reduces

[3] = tested on: MRC5 non-tumoral cells; assay: Cytotoxicity, alamarBlue assay, MRC5; format: cell-based, human; settings: Homo sapiens, MRC5, 72 h, 72 h incubation, alamarBlue fluorescence; read-out: absolute EC50 MRC5
Method: as §5, §6, §7
(§10) MRC-5 cells (human lung fibroblasts) were grown in monolayer (37 °C, 5 % CO2 and 100 % humidity) in DMEM medium (1 g/L glucose), supplemented with 10% heat-inactivated Fetal Bovine Serum (hiFBS), 2 mM L-glutamine, 100 U / mL penicillin and […]
(§11) streptomycin. […]
as §8, §9

[4] = tested on: L. major; assay: Leishmaniacidal activity, MTT assay; format: cell-based; settings: Leishmania major; 72 h incubation, MTT absorbance; read-out: absolute EC50 L. major
Method: Doxorubicin, suramin and miltefosine were used as control compounds.[ ^6b , ^9 ] After incubation with varied concentrations of the compounds for 72 h, cell viability was measured using either an alamarBlue™ assay (for MRC5, HeLa and T. brucei) or MTT assay (for L. major). Absolute EC50 values and selectivity indexes were then calculated from dose‐response curves (Table 2 and S14).
Invitrogen). L. major promastigotes (MHOM/IL/80/Friedlin) were cultured at 28 °C, 5 % CO2 in modified RPMI-1640 medium (Thermo Fisher Scientific, Waltham, MA, USA) with 10% hiFBS. Parasites were split every other day and maintained in their experimental growth phase (below 2 million parasites per mL). […]
The results are expressed as the concentration of compound that reduces cell growth by 50 % versus untreated control cells (EC50) using GraphPad Prism 7 (GraphPad Software) to fit the data to a sigmoidal curve. Data are presented as the average of three independent measurements all conducted in triplicate conditions. […]
The leishmaniacidal activity of the compounds on promastigotes L. major (MHOM/IL/80/Friedlin) was carried out as previously described.[S14] Briefly, 4 × 10^6 / mL promastigotes were incubated for 72 h at 28 °C in 96-well plates (50 µL/well) in the presence of increasing concentration of compounds. Cell proliferation was determined using an MTT-based assay (Sigma-Aldrich). Thus, after the 72 h incubation, 10 µL of MTT (5 mg/ml) were added to each well and parasites were reincubated for 4 hrs at 28 °C. Then, 50 µL of 20 % SDS were added to each well. The plate was then incubated at 37°C for 4-16 hrs and analysed using an Infinite F200 plate reader (TECAN Austria, GmbH). The absorbance was measured […]
at a wavelength of 540 nm and the EC50 was calculated as described above. Data are presented as the average of three independent measurements, all conducted in triplicate conditions. […]

[5] = tested on: T. brucei; assay: Trypanocidal activity, alamarBlue assay; format: cell-based; settings: Trypanosoma brucei; 72 h incubation, alamarBlue fluorescence; read-out: absolute EC50 T. brucei
Method: as §5, §6, §7, §10, §11, §8
hiFBS. Parasites were split every other day and maintained in their experimental growth phase (below 2 million parasites per mL).
as §9

[6] = tested on: F21T-K+ (human telomeric G-quadruplex, mixed parallel/hybrid); assay: FRET melting assay, human telomeric G4 in potassium buffer; format: binding; settings: 200 nM DNA, PIPER and 3 not reliable (spectral overlap)
Method: as §1, §2, §3, §4

[7] = tested on: FmycT-K+ (c-Myc promoter G-quadruplex, parallel); assay: FRET melting assay, c-Myc promoter G4; format: binding; settings: 200 nM DNA, PIPER and 3 not reliable (spectral overlap)
Method: as §1, §2, §3, §4

[8] = tested on: F10T-K+ (hairpin duplex DNA); assay: FRET melting assay, hairpin duplex DNA; format: binding; settings: 200 nM DNA, PIPER and 3 not reliable (spectral overlap)
Method: as §1, §2, §3, §4

[9] = tested on: Febr1T-K+ (T. brucei G-quadruplex); assay: FRET melting assay, T. brucei G4; format: binding; settings: 200 nM DNA, PIPER and 3 not reliable (spectral overlap)
Method: as §1, §2, §3, §4

[10] = 5 μM ligand, 10 mM KCl, 90 mM LiCl, 10 mM Li cacodylate

## CN1CCN(CCCN2C(=O)c3ccc(Oc4ccc5c(c4)C(=O)N(CCCN4CCN(C)CC4)C5=O)cc3C2=O)CC1 [Compound 5]
[1]; 10 µM ligand
  ΔTm F21T-Na+: -3 ± 1 °C
[2]
  EC50: > 100 µM
[3]
  EC50: > 100 µM
[4]
  EC50: > 100 µM
[5]
  EC50: 67 ± 18 µM
[6]; 10 µM ligand
  ΔTm F21T-K+: -3 ± 1 °C
[7]; 10 µM ligand
  ΔTm FmycT-K+: -3 ± 1 °C
[8]; 10 µM ligand
  ΔTm F10T-K+: 0 ± 1 °C
[9]; 10 µM ligand
  ΔTm Febr1T-K+: 1 ± 1 °C

## CN1CCN(CCCN2C(=O)c3ccc(C(c4ccc5c(c4)C(=O)N(CCCN4CCN(C)CC4)C5=O)(C(F)(F)F)C(F)(F)F)cc3C2=O)CC1 [Compound 6]
[1]; 10 µM ligand
  ΔTm F21T-Na+: -8 ± 1 °C
[2]
  EC50: > 100 µM
[3]
  EC50: > 100 µM
[4]
  EC50: > 100 µM
[5]
  EC50: 36 ± 2 µM
[6]; 10 µM ligand
  ΔTm F21T-K+: -2 ± 1 °C
[7]; 10 µM ligand
  ΔTm FmycT-K+: -4 ± 1 °C
[8]; 10 µM ligand
  ΔTm F10T-K+: 0 ± 1 °C
[9]; 10 µM ligand
  ΔTm Febr1T-K+: 2 ± 1 °C

## CN1CCN(CCCN2C(=O)c3ccc(C(=O)c4ccc5c(c4)C(=O)N(CCCN4CCN(C)CC4)C5=O)cc3C2=O)CC1 [Compound 7]
[1]; 10 µM ligand
  ΔTm F21T-Na+: -3 ± 2 °C
[2]
  EC50: > 100 µM
[3]
  EC50: > 100 µM
[4]
  EC50: > 100 µM
[5]
  EC50: 70 ± 13 µM
[6]; 10 µM ligand
  ΔTm F21T-K+: -3 ± 1 °C
[7]; 10 µM ligand
  ΔTm FmycT-K+: -3 ± 1 °C
[8]; 10 µM ligand
  ΔTm F10T-K+: 0 ± 1 °C
[9]; 10 µM ligand
  ΔTm Febr1T-K+: 1 ± 1 °C

## CN1CCN(CCCn2c(=O)c3cc4c(=O)n(CCCN5CCN(C)CC5)c(=O)c4cc3c2=O)CC1 [Compound 8]
[1]; 10 µM ligand
  ΔTm F21T-Na+: 1 ± 1 °C
[2]
  EC50: > 100 µM
[3]
  EC50: > 100 µM
[4]
  EC50: > 100 µM
[5]
  EC50: 52 ± 7 µM
[6]; 10 µM ligand
  ΔTm F21T-K+: 1 ± 1 °C
[7]; 10 µM ligand
  ΔTm FmycT-K+: -2 ± 1 °C
[8]; 10 µM ligand
  ΔTm F10T-K+: 0 ± 1 °C
[9]; 10 µM ligand
  ΔTm Febr1T-K+: -2 ± 1 °C

## COc1cccc2c1C(=O)c1c(O)c3c(c(O)c1C2=O)C[C@@](O)(C(=O)CO)C[C@@H]3O[C@H]1C[C@H](N)[C@H](O)[C@H](C)O1 [Doxorubicin, reference compound]
[1]; 1 µM ligand
  ΔTm F21T-Na+: 0 ± 1 °C
[2]
  EC50: 0.4 ± 0.05 µM
[6]; 1 µM ligand
  ΔTm F21T-K+: 10 ± 1 °C
[7]; 1 µM ligand
  ΔTm FmycT-K+: 8 ± 1 °C
[8]; 1 µM ligand
  ΔTm F10T-K+: 2 ± 1 °C
[9]; 1 µM ligand
  ΔTm Febr1T-K+: 5 ± 1 °C

## CCCCCCCCCCCCCCCCOP(=O)([O-])OCC[N+](C)(C)C [Miltefosine, reference compound]
[4]
  EC50: 5.8 ± 0.01 µM

## O=C1c2ccc3c4ccc5c6c(ccc(c7ccc(c2c37)C(=O)N1CCN1CCCCC1)c64)C(=O)N(CCN1CCCCC1)C5=O [PIPER, reference compound]
[1]; 5 μM ligand, 100 mM NaCl, 10 mM Li cacodylate
  ΔTm F21T-Na+: 17±2 °C
[1]; 10 µM ligand
  ΔTm F21T-Na+: 22 ± 1 °C
[6]; 1 µM ligand
  ΔTm F21T-K+: 33 ± 1 °C
[6]; [10]
  ΔTm F21T-K+: 37±2 °C
[6]; 10 µM ligand
  ΔTm F21T-K+: > 40 °C
[7]; 1 µM ligand
  ΔTm FmycT-K+: 23 ± 1 °C
[7]; 5 μM ligand, 1 mM KCl, 99 mM LiCl, 10 mM Li cacodylate
  ΔTm FmycT-K+: 21±2 °C
[7]; 10 µM ligand
  ΔTm FmycT-K+: 26 ± 1 °C
[8]; 1 µM ligand
  ΔTm F10T-K+: 0 ± 1 °C
[8]; [10]
  ΔTm F10T-K+: 1±1 °C
[9]; 1 µM ligand
  ΔTm Febr1T-K+: 21 ± 4 °C
[9]; [10]
  ΔTm Febr1T-K+: 33±1 °C
[9]; 10 µM ligand
  ΔTm Febr1T-K+: 38 ± 7 °C

## Cc1ccc(C(=O)Nc2ccc(S(=O)(=O)O)c3cc(S(=O)(=O)O)cc(S(=O)(=O)O)c23)cc1NC(=O)c1cccc(NC(=O)Nc2cccc(C(=O)Nc3cc(C(=O)Nc4ccc(S(=O)(=O)O)c5cc(S(=O)(=O)O)cc(S(=O)(=O)O)c45)ccc3C)c2)c1 [Suramin, reference compound]
[5]
  EC50: 0.044 ± 0.006 µM

## C[n+]1ccc(-c2c3nc(c(-c4cc[n+](C)cc4)c4ccc([nH]4)c(-c4cc[n+](C)cc4)c4ccc([nH]4)c(-c4cc[n+](C)cc4)c4nc2C=C4)C=C3)cc1 [TMPyP4, reference compound]
[1]; 1 µM ligand
  ΔTm F21T-Na+: 31 ± 2 °C
[6]; 1 µM ligand
  ΔTm F21T-K+: 33 ± 1 °C
[7]; 1 µM ligand
  ΔTm FmycT-K+: 34 ± 1 °C
[8]; 1 µM ligand
  ΔTm F10T-K+: 9 ± 1 °C
[9]; 1 µM ligand
  ΔTm Febr1T-K+: 32 ± 2 °C
